# US20210403866A1, “ENHANCED DENDRITIC CELL IMMUNE ACTIVATION BY COMBINED INHIBITION OF NR2F6 WITH CANNIBIDIOL” (Regen Biopharma, Inc., priority 2019, published 2021)
# Key:
# WT1 mRNA [1] = details: mWT1-C1498, compared with DAC treatment; cited from earlier work
# [2] = tested on: murine WT1-transfected C1498 (mWT1-C1498); details: increasing doses; cited from earlier work
# WT1 mRNA [3] = details: human MIAPaCa2 PC cells; cited from earlier work
# WT1 mRNA [4] = details: GEM-treated MIAPaCa2-bearing SCID mice; cited from earlier work
# allogeneic T cells [5] = assay: Mixed Lymphocyte Reaction, dendritic cells added to allogeneic T cells, tritiated thymidine; type: cell-based; details: cannabidiol 1 and 2 micromolar added to dendritic cells; 40,000 allogeneic T cells; 96 hours culture; FIG. 1
# Protocol: (§1) Dendritic cells where added to allogeneic T cells in 96 well plates, wherein allogeneic T cells where added at 40,000 cells per plate and the indicated number of dendritic cells added. Culture was performed for 96 hours with tritiated thymidine added at the last 12 hours of culture at a concentration of 1 microcurie per well. Black bars indicate no cannabidiol added to dendritic cells, striped bars indicate 1 micro Molar and white indicate 2 micromolar. […] Results are shown in graph, FIG. 1.
# allogeneic T cells [6] = assay: Mixed Lymphocyte Reaction with dendritic cells silenced for NR2F6; type: cell-based; details: increased amounts of cannabidiol added to dendritic cells silenced for NR2F6; FIG. 2
# Protocol: as §1
# MLR was performed as in example 1. All cells where silenced for NR2F6. An increase in allostimulatory activity was observed. Results are shown in graph, FIG. 2.
smiles,measurement,setting,value
"Nc1ncn([C@@H]2O[C@H](CO)[C@@H](O)[C@H]2O)c(=O)n1 [AZA, azacitidine]",up-regulation of WT1 mRNA,WT1 mRNA [1],"induced up-regulation of mRNA, but not to the same degree as with DAC treatment"
same,number of viable cells,[2],decreased the number of viable cells in a dose- or time-dependent manner
"Nc1ccn([C@@H]2O[C@H](CO)[C@@H](O)C2(F)F)c(=O)n1 [GEM, gemcitabine]",WT1 mRNA levels,WT1 mRNA [3],enhanced WT1 mRNA levels
same,WT1 mRNA in tumor tissue,WT1 mRNA [4],increase in WT1 mRNA
C=C(C)[C@@H]1CCC(C)=C[C@H]1c1c(O)cc(CCCCC)cc1O [cannabidiol],T cell activation in Mixed Lymphocyte Reaction,allogeneic T cells [5],dose dependent suppression of T cell activation
same,allostimulatory activity in MLR,allogeneic T cells [6],dose dependent increase in allostimulatory activity
